Assays:
[1] = system: full-length lungfish MR; assay: luciferase reporter transactivation; type: cell-based, Protopterus dolloi; details: agonist; HEK293, TAT3-luc promoter
[2] = system: truncated lungfish MR (MR-CDE); assay: luciferase reporter transactivation; type: cell-based, Protopterus dolloi; details: agonist; HEK293, TAT3-luc promoter

C[C@@H]1C[C@H]2[C@@H]3CCC4=CC(=O)C=C[C@]4(C)[C@@]3(F)[C@@H](O)C[C@]2(C)[C@@]1(O)C(=O)CO [dexamethasone]
EC50 [1]: 4.7 nM | EC50 [2]: 7.7 nM

C[C@]12CCC(=O)C=C1CC[C@@H]1[C@@H]2[C@@H](O)C[C@@]2(C)[C@H]1CC[C@]2(O)C(=O)CO [cortisol]
EC50 [1]: 66.1 nM | EC50 [2]: 86.7 nM

C[C@]12CCC(=O)C=C1CC[C@@H]1[C@@H]2[C@@H](O)C[C@]2(C=O)[C@@H](C(=O)CO)CC[C@@H]12 [aldosterone]
EC50 [1]: 0.04 nM | EC50 [2]: 0.24 nM

C[C@]12C[C@H](O)[C@H]3[C@@H](CCC4=CC(=O)CC[C@@]43C)[C@@H]1CC[C@@H]2C(=O)CO [corticosterone]
EC50 [1]: 23.1 nM | EC50 [2]: 85.5 nM

C[C@]12CC[C@H]3[C@@H](CCC4=CC(=O)CC[C@@]43C)[C@@H]1CC[C@@H]2C(=O)CO [11-deoxycorticosterone]
EC50 [1]: 0.04 nM | EC50 [2]: 0.13 nM

C[C@]12C=CC(=O)C=C1CC[C@H]1[C@@H]3C[C@@H](O)[C@](O)(C(=O)CO)[C@@]3(C)C[C@H](O)[C@@]12F [triamcinolone]
EC50 [1]: 1.3 nM | EC50 [2]: 2.4 nM

CC(=O)[C@H]1CC[C@H]2[C@@H]3CCC4=CC(=O)CC[C@]4(C)[C@H]3CC[C@]12C [progesterone]
EC50 [1]: 0.03 nM | EC50 [2]: 0.044 nM

C[C@]12CCC(=O)C=C1CC[C@@H]1[C@@H]2CC[C@@]2(C)[C@H]1CC[C@]2(O)C(=O)CO [11-deoxycortisol]
EC50 [1]: 0.17 nM | EC50 [2]: 0.27 nM
